Source: ChEMBL document CHEMBL5370683, “Peptide-to-Small Molecule: Discovery of Non-Covalent, Active-Site Inhibitors of β-Herpesvirus Proteases” (ACS Med Chem Lett, 2023)
Peptide text beside a SMILES is read from it.

What was measured:
[1] = Inhibition of amino terminal GST tagged HCMV protease (1 to 256 residues) expressed in Escherichia coli BL21 (DE3) cells using 5-carboxyfluorescein [FAM]-RGVVNASSRLAK as peptide substrate incubated for 3 hrs by fluorescence based analysis; parameters: species or system Human betaherpesvirus 5
[2] = Inhibition of N-terminal 6 His-tagged HHV6 protease (2 to 230 residues) expressed in Escherichia coli BL21 cells using 5FAM-KPSILNASLTPETVKK as peptide substrate incubated for 3 hrs by fluorescence based analysis; parameters: species or system Human betaherpesvirus 6
Human betaherpesvirus 5 [3] = experiment: Antiviral activity against HCMV infected in HFF cells assessed as reduction in viral replication; type: functional, organism-based; conditions: Human betaherpesvirus 5, HFF
[4] = Cytotoxicity against HFF cells assessed as inhibition in cell viability incubated for 5 days by luminescence based analysis; type: toxicity; conditions: human, time 5 day
Human betaherpesvirus 5 [5] = experiment: Inhibition of amino terminal GST tagged HCMV protease (1 to 256 residues) expressed in Escherichia coli BL21 (DE3) cells using 5-carboxyfluorescein [FAM]-RGVVNASSRLAK as peptide substrate at 99 uM incubated for 3 hrs by fluorescence based analysis relative to control
Human betaherpesvirus 6 = experiment: Inhibition of N-terminal 6 His-tagged HHV6 protease (2 to 230 residues) expressed in Escherichia coli BL21 cells using 5FAM-KPSILNASLTPETVKK as peptide substrate at 99 uM incubated for 3 hrs by fluorescence based analysis relative to control
[6] = Inhibition of amino terminal GST tagged HCMV protease F1A mutant (1 to 256 residues) expressed in Escherichia coli BL21 (DE3) cells using 5-carboxyfluorescein [FAM]-RGVVNASSRLAK as peptide substrate incubated for 3 hrs by fluorescence based analysis; parameters: species or system Human betaherpesvirus 5
[7] = Inhibition of N-terminal 6 His-tagged HHV6 protease F1A mutant (2 to 230 residues) expressed in Escherichia coli BL21 cells using 5FAM-KPSILNASLTPETVKK as peptide substrate incubated for 3 hrs by fluorescence based analysis; parameters: species or system Human betaherpesvirus 6
[8] = Inhibition of amino terminal GST tagged HCMV protease I2A mutant (1 to 256 residues) expressed in Escherichia coli BL21 (DE3) cells using 5-carboxyfluorescein [FAM]-RGVVNASSRLAK as peptide substrate incubated for 3 hrs by fluorescence based analysis; parameters: species or system Human betaherpesvirus 5
[9] = Inhibition of N-terminal 6 His-tagged HHV6 protease […] mutant (2 to 230 residues) expressed in Escherichia coli BL21 cells using 5FAM-KPSILNASLTPETVKK as peptide substrate incubated for 3 hrs by fluorescence based analysis; parameters: species or system Human betaherpesvirus 6

Compound | IC50 [1] [µM] | IC50 [2] [µM] | inhibition (Human betaherpesvirus 5 [5]) [%] | also measured
Cc1ccc([C@H](c2cn(C3CCCC3)nc2-c2ccccc2C)n2cccc(N3C[C@H](C(=O)NC45CCC(CC4)NC5=O)N(C)C3=O)c2=O)cc1 | > 99 | 50 | 39 | 
CC[C@H](C)[C@H](NC(=O)[C@H](C)NC(C)=O)C(=O)N[C@H](C(=O)NCC(=O)N[C@@H](Cc1c[nH]cn1)C(=O)N[C@@H](Cc1ccc(O)cc1)C(=O)N[C@@H](Cc1c[nH]c2ccccc12)C(=O)N[C@H](C(=O)N[C@@H](CCCNC(=N)N)C(=O)N[C@@H](Cc1ccccc1)C(=O)N[C@@H](CC(C)C)C(=O)N1CCC[C@H]1C(=O)N[C@@H](CS)C(=O)NCC(N)=O)C(C)C)[C@@H](C)O (Ac-AITGHYWVRFLPCG-NH2) |  |  |  | IC50 [6]: 0.079 µM; IC50 [7]: 0.14 µM
CC(=O)N[C@@H](Cc1ccccc1)C(=O)N[C@@H](C)C(=O)N[C@H](C(=O)NCC(=O)N[C@@H](Cc1c[nH]cn1)C(=O)N[C@@H](Cc1ccc(O)cc1)C(=O)N[C@@H](Cc1c[nH]c2ccccc12)C(=O)N[C@H](C(=O)N[C@@H](CCCNC(=N)N)C(=O)N[C@@H](Cc1ccccc1)C(=O)N[C@@H](CC(C)C)C(=O)N1CCC[C@H]1C(=O)N[C@@H](CS)C(=O)NCC(N)=O)C(C)C)[C@@H](C)O (Ac-FATGHYWVRFLPCG-NH2) |  |  |  | IC50 [8]: 0.184 µM; IC50 [9]: < 0.076 µM
CC[C@H](C)[C@H](NC(=O)[C@H](Cc1ccccc1)NC(C)=O)C(=O)N[C@H](C(=O)NCC(=O)N[C@@H](Cc1c[nH]cn1)C(=O)N[C@@H](Cc1ccc(O)cc1)C(=O)N[C@@H](Cc1c[nH]c2ccccc12)C(=O)N[C@H](C(=O)N[C@@H](CCCNC(=N)N)C(=O)N[C@@H](Cc1ccccc1)C(=O)N[C@@H](CC(C)C)C(=O)N1CCC[C@H]1C(=O)N[C@@H](CS)C(=O)NCC(N)=O)C(C)C)[C@@H](C)O (Ac-FITGHYWVRFLPCG-NH2) | < 0.076 | < 0.076 |  | 
CC[C@H](C)[C@H](NC(C)=O)C(=O)N[C@H](C(=O)NCC(=O)N[C@@H](Cc1c[nH]cn1)C(=O)N[C@@H](Cc1ccc(O)cc1)C(=O)N[C@@H](Cc1c[nH]c2ccccc12)C(N)=O)[C@@H](C)O (Ac-ITGHYW-NH2) | > 99 | > 99 | 2 | inhibition (Human betaherpesvirus 6): 21%

More lines, main results first:

IC50 [1] [µM] | IC50 [2] [µM] | Compound | inhibition (Human betaherpesvirus 5 [5]) [%] | also measured
9.8 | 11 | CN1C(=O)N(c2cccn([C@@H](c3ccccc3)c3cn(C4CCCC4)nc3-c3ccccc3)c2=O)C[C@@H]1C(=O)NC12CCC(CC1)NC2=O |  | EC50 (Human betaherpesvirus 5 [3]): > 25 µM; CC50 at 120 h [4]: > 25 µM
> 99 | 18 | CN1C(=O)N(c2cccn([C@@H](c3ccccc3)c3cn(C4CCCC4)nc3-c3ccccc3)c2=O)C[C@@H]1C(=O)Nc1ccc[nH]c1=O | 32 | EC50 (Human betaherpesvirus 5 [3]): 38 µM; CC50 at 120 h [4]: 53 µM
> 99 | > 99 | CN1C(=O)N(c2cccn([C@H](c3ccccc3)c3cn(C4CCCC4)nc3-c3ccccc3)c2=O)C[C@@H]1C(=O)Nc1ccc[nH]c1=O | 2 | inhibition (Human betaherpesvirus 6): 12%; EC50 (Human betaherpesvirus 5 [3]): 90 µM; CC50 at 120 h [4]: 89 µM
15 | 27 | Cc1cccc(C(c2cn(C3CCCC3)nc2-c2ccccc2)n2cccc(N3C[C@H](C(=O)NC45CCC(CC4)NC5=O)N(C)C3=O)c2=O)c1 (mixture of isomers) |  | 
13 | 5 | Cc1ccc(C(c2cn(C3CCCC3)nc2-c2ccccc2)n2cccc(N3C[C@H](C(=O)NC45CCC(CC4)NC5=O)N(C)C3=O)c2=O)cc1 (mixture of isomers) |  | 
30 | 24 | Cc1ccccc1C(c1cn(C2CCCC2)nc1-c1ccccc1)n1cccc(N2C[C@H](C(=O)NC34CCC(CC3)NC4=O)N(C)C2=O)c1=O (mixture of isomers) |  | 
